Experimental data published in patent US11071744B2, “Prodrug salts” (AEROMICS, INC., priority 2013, dated 2021).
Values after ≈ are worked out from the molar mass of the structure shown. Where a name gives a salt, the structure may show the parent alone. Read-outs that look alike come from different tables or passages of the source.

What was measured:
physchem = details: for final pH of solutions: in water
Procedure: (§1) 15 g is dissolved in 1.2 L of water with 120 mM of sodium hydroxide and extracted with 500 ml ethyl acetate to remove phenol and non acid impurities. The aqueous layer is acidified with concentrated HCl to pH 1.2 and extracted with ethyl acetate 1 L followed by 600 ml. […] Ethyl acetate is removed by adding 100 ml of methanol and evaporating. […] Sample kept at RT.

[1] = Procedure: as §1
[2] = tested on: mouse water toxicity model; assay: Mouse water toxicity model, survival curves; details: 0.76 mg/kg vs placebo
Procedure: Mouse Water Toxicity Model—Survival Curves: The in vivo efficacies of the compounds are tested using the mouse water toxicity model, where a mouse is injected with water at 20% of its body weight. […] The resulting euvolemic hyponatremia rapidly leads to CE, making this a practical model to test an inhibitor of the CNS aquaporin, AQP4b.
The ability of mice to survive H2O toxicity is determined in three experiments using 10-12 mice each (16-19 weak old male/female). Deionized water is prepared for injection with either 0.39 mg/kg phenylbenzamide (placebo) or 0.76 mg/kg with test compound.

[3] = tested on: mouse water toxicity model; assay: Mouse water toxicity model, brain volume by MRI
Procedure: Mouse Water Toxicity Model—Brain Volume by Magnetic Resonance Imaging (MRI): MRI is used to measure changes in brain volume in response to water shock, using the water toxicity model. As described for the survival and brain water content studies above, mice are injected, IP, with a water bolus alone or water bolus and test compound at 0.76 mg/kg, and changes in brain volume as detected by MRI are monitored. […] High resolution T2-weighted sagittal scans (resolution=0.1 mm×0.1 mm×0.7 mm) of the mouse head are obtained prior to water injection, 5.67 min post water injection, and then every 5.2 minutes until the animal expires from the water loading. Each scan contains twenty-five 0.7 mm contiguous imaging slices of which 14-15 slices contain a portion of the brain. The cross sectional area of the brain in each imaging slice is measured by manual region-of-interest selection using ImageJ. Brain volumes are then calculated for each scan by summing the individual cross sectional brain areas and multiplying by the slice thickness (0.7 mm).
The brain volume by magnetic resonance imaging experiment is also conducted with phenylbenzamide (0.39 mg/kg) and Compound 4 (0.83 mg/kg).

AQP2 = target: T1, AQP2 (Homo sapiens, UniProt P41181); assay: Aquaporin-Mediated Cell Volume Change Assay, CHO-AQP2 cells; assay type: cell-based; details: 10 μM
T1 construct: expressed in transfected cells
T1 sequence (P41181 1-271): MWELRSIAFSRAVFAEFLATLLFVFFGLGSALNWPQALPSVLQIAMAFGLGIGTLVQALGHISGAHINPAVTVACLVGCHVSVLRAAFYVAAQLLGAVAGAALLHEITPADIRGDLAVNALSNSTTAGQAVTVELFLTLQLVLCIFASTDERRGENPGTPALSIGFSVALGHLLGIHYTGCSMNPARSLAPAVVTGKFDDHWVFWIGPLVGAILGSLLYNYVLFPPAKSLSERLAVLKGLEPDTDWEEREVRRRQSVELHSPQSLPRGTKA
Procedure: (§2) Structure activity relationships (SARs) are determined by assaying analogues of selected hits to guide chemistry for the preparation of new molecules to be tested for improved potency. For this iterative process we use a quantitative kinetic assay—the Aquaporin-Mediated Cell Volume Change Assa—in a 96-well multiplate reader. It detects changes in light scattering by a monolayer of CHO cells expressing the desired AQP as they shrink when exposed to hypertonic solution (300 mOsm→530 mOsm). FIG. 1 depicts the aquaporin-mediated cell volume change assay with AQP4 expressing cells (FIG. 1A) and AQP2 expressing cells (FIG. 1B). The cells expressing aquaporins shrink more rapidly than control cells, due to enhanced water flow, which shrinkage can be inhibited by a compound that inhibits the aquaporin.
(§3) In FIG. 1, aquaporin-expressing cells are shown in the presence of DMSO (triangles) or in the presence of the test compound (here, Compound 3) at 10 μM (squares), along with CHO-CD81 expressing control cells in the presence of DMSO (diamonds). Each curve represents an average of 16 wells in the 96-well plate.
(§4) In FIG. 1A, when the AQP4b cells treated with DMSO are exposed to hypertonic shock, the cells show rapid shrinking, giving a rise in light scattering (increasing relative change in absorbance, Abs/Abs0) followed by a decay as cells detach from the plate. […]

AQP4b [4] = assay: Aquaporin-Mediated Cell Volume Change Assay, CHO-AQP4b cells; assay type: cell-based; details: 10 μM, AQP4 (both splice variants)
Procedure: as §2, §3, §4

AQP4b [5] = target: T2, AQP4b (Homo sapiens, UniProt P55087); assay: as above; assay type: cell-based; details: read-out: inhibition of rate of shrinking, 10 μM, CHO-AQP4b cells, hypertonic shock
T2 construct: expressed in transfected cells
Procedure: as §2, §3, §4

AQP5 = target: T3, AQP5 (Homo sapiens, UniProt P55064); assay: Aquaporin-Mediated Cell Volume Change Assay, CHO cells expressing AQP5; assay type: cell-based; details: 10 μM
T3 construct: expressed in transfected cells
Procedure: as §2
(§5) The specificity of the compounds is tested against the most closely related of the 13 known aquaporins: AQP1, AQP2, AQP5 and both splice variants of AQP4 (A and B). A stable CHO cell line is created for each of the above aquaporins and the inhibition of water permeability using the Aquaporin-Mediated Cell Volume Change Assay with 10 μM Compound 3 is tested.

AQP1 = target: T4, AQP1 (Homo sapiens, UniProt P29972); assay: Aquaporin-Mediated Cell Volume Change Assay, CHO cells expressing AQP1; assay type: cell-based; details: 10 μM
T4 construct: expressed in transfected cells
T4 sequence (P29972 1-269): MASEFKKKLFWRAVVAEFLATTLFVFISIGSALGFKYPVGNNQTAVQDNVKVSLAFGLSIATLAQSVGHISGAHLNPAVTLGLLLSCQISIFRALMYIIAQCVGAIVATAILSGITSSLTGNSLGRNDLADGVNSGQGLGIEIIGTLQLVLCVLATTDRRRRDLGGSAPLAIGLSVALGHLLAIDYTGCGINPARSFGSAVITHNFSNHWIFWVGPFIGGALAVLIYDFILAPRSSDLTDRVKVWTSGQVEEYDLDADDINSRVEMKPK
Procedure: as §2, §5

AQP4 = target: T5, AQP4 (Homo sapiens, UniProt P55087); assay: AQP Inhibition Cell-Based Assay (Table 1)
T5 construct: expressed in transfected cells; host or cells: CHO

purified AQP4b = purified AQP4b (Homo sapiens, UniProt P55087); assay: Hummel-Dryer style binding assay with [3H]-Compound 4
Procedure: To support the mechanism of action by which phenylbenzamides directly block AQP4, we perform in vitro binding studies using purified AQP4b and Compound 4 radiolabeled with ^3H. Using a Hummel-Dryer style assay, a gel filtration column is equilibratrated with buffer containing detergent, to maintain solubility of AQP4b, and 1 μM [^3H]-Compound 4. AQP4b is diluted to 250 μM in this column buffer and incubated at RT for 30 min. The sample is then applied to the column, fractions collected and the presence of [^3H]-Compound 4 detected by liquid scintillation counting. […] The rise in [^3H]-Compound 4 from a baseline value of 1 μM represents binding to each of these proteins.

[6] = tested on: mouse middle cerebral artery occlusion (MCAo) model; assay: MCAo stroke model, cerebral edema (hemispheric brain volume by MRI)
Procedure: (§6) To mimic this injury in mice, an intraluminal monofilament model of middle cerebral artery occlusion (MCAo) is used. Occlusion is achieved by inserting a surgical filament into the external carotid artery (ECA) and threading it forward into the internal carotid artery (ICA) until the tip blocks the origin of the MCA. […] This technique is used to study a temporary occlusion in which the MCA is blocked for one hour. The filament is then removed allowing reperfusion to occur for 24 hours before the animals brain is imaged using T2-weighted scans in a 9.4T Bruker MRI scanner at the Case Center for Imaging Research (FIG. 10).
Cerebral Edema—Mice are given saline or treated with Compound 5 by multi-dosing at 5 mg/kg i.p. every three hours (n=8 per treatment). […] Ipsilateral and contralateral hemispheric volume is measured from the T2-weighted MR images of mice 24 hours post-icus. Relative change in hemispheric volume is calculated as a percent of the difference between ipsilateral brain volume (Vi) and contralateral brain volume (Vc) relative to the contralateral brain volume (Percent Change in Hemispheric Brain Volume=((Vi−Vc)/Vc)×100%.

[7] = tested on: mouse middle cerebral artery occlusion (MCAo) model; assay: MCAo stroke model, neurological outcome; assay type: in vivo
Procedure: as §6
Neurological Outcome—In the same experiment as above, animals are scored for neurological outcome on a simple 5 point scale described in Manley, G. T. et al., Aquaporin-4 Deletion in Mice Reduces Brain Edema After Acute Water Intoxication and Ischemic Stroke, Nature Medicine, 6, 159-163 (2000).

[8] = tested on: mouse middle cerebral artery occlusion (MCAo) model; assay: MCAo stroke model, survival; assay type: in vivo; details: at 24 h; 2 mg/kg i.p. loading dose plus 1 mg/ml at 8 μl/h pump, vs saline
Procedure: as §6
Survival—Mice are treated with Compound 5 using a 2 mg/kg i.p. loading dose and 1 mg/ml at 8 μl/h maintenance dose (delivered by an i.p. osmotic pump) of Compound 5, or given saline (controls; n=17) using an identical approach.

[9] = Bioconversion of prodrug salt to Compound 1 in mouse plasma in vitro; assay type: in vitro ADME; details: 20° C.
[10] = mice injected IP
Procedure: Measurements are taken at 15 minutes and 24 hours after a 10 mg/kg i.p. loading dose and 1 mg/ml at 8 μl/h maintenance dose (delivered by an Alzet i.p. osmotic pump, Durect Corp., Cupertino, Calif.) of 2-{[3,5-bis(trifluoromethyl)phenyl]carbamoyl}-4-chlorophenyl phosphate bis ethanolamine salt (n=5 mice/time point, mean±SEM) (FIG. 9). […] Samples are analyzed by tandem LC-MS/MS using C18 reversed-phase chromatography and mass analysis with a triple-quadrapole mass spectrometer.

[11] = solid state, freeze dried salts

T5 sequence (P55087 23-323, species assumed): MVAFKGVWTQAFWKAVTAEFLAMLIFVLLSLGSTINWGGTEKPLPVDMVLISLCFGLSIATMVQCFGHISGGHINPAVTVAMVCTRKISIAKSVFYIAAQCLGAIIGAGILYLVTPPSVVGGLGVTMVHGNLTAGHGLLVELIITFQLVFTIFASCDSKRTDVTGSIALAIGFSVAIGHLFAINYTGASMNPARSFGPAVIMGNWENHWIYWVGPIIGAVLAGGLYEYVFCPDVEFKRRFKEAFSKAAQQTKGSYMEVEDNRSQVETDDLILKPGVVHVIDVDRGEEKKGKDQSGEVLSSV
T2 sequence (P55087 23-323 limits assumed): as the sequence (P55087 23-323, species assumed) above
purified AQP4b, sequence (P55087 23-323): as the sequence (P55087 23-323, species assumed) above
T3 sequence (P55064 whole entry, species assumed): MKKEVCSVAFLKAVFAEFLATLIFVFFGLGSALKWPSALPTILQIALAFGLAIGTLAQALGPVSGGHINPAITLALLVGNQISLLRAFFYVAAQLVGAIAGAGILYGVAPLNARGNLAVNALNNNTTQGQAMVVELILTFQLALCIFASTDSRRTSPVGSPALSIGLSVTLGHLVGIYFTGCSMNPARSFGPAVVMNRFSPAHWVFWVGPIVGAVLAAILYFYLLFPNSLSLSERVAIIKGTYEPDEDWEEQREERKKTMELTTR

## O=C(Nc1cc(C(F)(F)F)cc(C(F)(F)F)c1)c1cc(Cl)ccc1OP(=O)(O)O
physchem; pH 7, aqueous buffer
  solubility: 5000 µg/mL (≈ 10.8 mM)
[1]
  stability at RT: stable at RT for a week or more

## O=C(Nc1cc(C(F)(F)F)cc(C(F)(F)F)c1)c1cc(Cl)ccc1O [Compound 1, N-(3,5-bis(trifluoromethyl)phenyl)-5-chloro-2-hydroxybenzamide]
[2]
  improvement of percent survival: 3.2 fold
  improvement of time to 50% survival: roughly 52 min
physchem; water
  solubility in water: 3.8 µg/mL (≈ 0.0099 mM)
[3]; 0.76 mg/kg
  extent of CE during the period of observation: reduced
[3]; 0.76 mg/kg, from 0.081 to 0.032 min^−1
  reduction of rate of CE development: 2.5 fold
[3]; mouse water toxicity model, 0.76 mg/kg IP, LC-MS/MS
  plasma levels: 0.03 to 0.06 µg

## O=C(Nc1cc(Cl)cc(Cl)c1)c1cc(Cl)ccc1O [Compound 3, 5-chloro-N-(3,5-dichlorophenyl)-2-hydroxybenzamide]
AQP2
  inhibition of water permeability: inhibits
AQP4b [4]
  inhibition of water permeability: inhibits
AQP4b [5]
  inhibition at 10 µM: 55%
AQP5
  inhibition of water permeability: poorly inhibits
AQP1
  inhibition of water permeability: poorly inhibits

## O=C(Nc1cc(C(F)(F)F)cc(C(F)(F)F)c1)c1cc(C(F)(F)F)ccc1O [Compound 4, N-(3,5-bis(trifluoromethyl)phenyl)-2-hydroxy-5-(trifluoromethyl)benzamide]
AQP4
  AQP Inhibition Cell-Based Assay (%): 38.9%
Purified AQP4b
  binding to solubilized AQP4b: relatively weak binding

## O=C(Nc1cc(C(F)(F)F)cc(C(F)(F)F)c1)c1cc(Cl)ccc1OP(=O)([O-])[O-].[Na+].[Na+] [Compound 5]
[6]; 24 hours after MCAo, 5 mg/kg i.p. every three hours, ±SEM, control 13.4%
  relative change in ipsilateral hemispheric brain volume: 4.2±1.7%
[6]; vs saline control
  reduction in brain swelling after MCAo: 3.2 fold
[7]; 5 point scale, control 2.77±0.66
  average neurological score: 0.88±0.31
[7]; mouse, in vivo
  progression of neurological state: did not progress into a state of severe paralysis or death
physchem
  solubility in water: 1000 µg/mL
  final pH of solutions: ~9.5
physchem; water
  solubility: ~10000 µg/mL
[1]; [11]
  hydrolysis in the solid state: about 1 % per day
[1]; solution, RT, longer term
  longer term hydrolysis in solution: about 1 % per day
[8]
  improvement in overall survival: 29.4%

## O=C(Nc1ccccc1)c1ccccc1 [Phenylbenzamide, reference compound]
AQP4
  AQP Inhibition Cell-Based Assay (%): 4.5%

## O=C(Nc1cc(C(F)(F)F)cc(C(F)(F)F)c1)c1cc(Cl)ccc1OP(=O)(O)O [bis ethanolamine salt]
physchem; water
  solubility: ~10000 µg/mL
[9]
  time to render prodrug undetectable: Less than 5 minutes
[1]
  hydrolysis in the solid state: about 1 % per day
  longer term hydrolysis in solution: about 1 % per day
[10]
  bioavailability and conversion to Compound 1: good bioavailability and near-complete conversion
  prodrug salt in plasma samples: undetectable

## NCCO.O=C(Nc1cc(C(F)(F)F)cc(C(F)(F)F)c1)c1cc(Cl)ccc1OP(=O)(O)O [mono ethanolamine salt]
physchem; water
  solubility: ~5000 µg/mL
[1]; after 5 days at RT
  hydrolysis: about 1%

## O=C(Nc1cc(C(F)(F)F)cc(C(F)(F)F)c1)c1cc(Cl)ccc1OP(=O)([O-])O.[Na+] [mono sodium salt]
physchem
  final pH of solutions: ~8.5
physchem; water
  solubility: ~5000 µg/mL
[1]; [11]
  hydrolysis in the solid state: about 1 % per day
[1]; solution, RT, longer term
  longer term hydrolysis in solution: about 1 % per day
